Results: patent publication US9505781B2, “Compositions comprising thienopyrimidine and thienopyridine compounds and methods of use thereof” (The Regents of the University of Michigan, priority 2013, dated 2016)

target: T1, menin-MLL interaction (Homo sapiens, UniProt O00255); test: biochemical
T1 sequence (O00255 1-610): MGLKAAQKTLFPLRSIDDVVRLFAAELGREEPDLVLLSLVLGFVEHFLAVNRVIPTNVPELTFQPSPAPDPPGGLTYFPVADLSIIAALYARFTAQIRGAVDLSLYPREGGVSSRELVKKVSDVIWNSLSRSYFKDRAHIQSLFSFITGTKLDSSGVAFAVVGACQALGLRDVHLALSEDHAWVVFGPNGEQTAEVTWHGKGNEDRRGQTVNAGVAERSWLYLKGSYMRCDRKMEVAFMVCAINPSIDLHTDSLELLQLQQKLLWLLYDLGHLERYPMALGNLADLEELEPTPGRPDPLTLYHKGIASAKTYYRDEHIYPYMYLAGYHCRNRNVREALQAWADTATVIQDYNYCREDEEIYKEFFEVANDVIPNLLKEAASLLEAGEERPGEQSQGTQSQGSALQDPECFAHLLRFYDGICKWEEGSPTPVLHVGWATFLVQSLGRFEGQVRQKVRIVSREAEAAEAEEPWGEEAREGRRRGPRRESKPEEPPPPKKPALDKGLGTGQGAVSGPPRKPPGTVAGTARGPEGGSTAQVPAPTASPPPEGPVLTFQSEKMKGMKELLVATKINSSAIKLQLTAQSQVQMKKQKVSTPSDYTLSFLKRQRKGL
Excerpt: Compounds that inhibit the interaction decrease the fluorescence anisotropy which is being used as a read-out for compound screening and for IC50 determination.

SMILES	IC50
Cc1c(CN2CCC(Nc3ncnc4sc(CC(F)(F)F)cc34)CC2)ccc2c1cc(C#N)n2CC(CO)OC(C)C (centres unmarked) [Compound 302]	< 100 nM
N#Cc1cc2cc(C(CO)N3CCC(Nc4ncnc5sc(CC(F)(F)F)cc45)CC3)ccc2[nH]1 (centres unmarked) [Compound 211]	< 100 nM
O=C(Cc1ccc(Cl)cc1)N1CCN(c2ncnc3sc(CC(F)(F)F)cc23)CC1 [Compound 71]	100 to 500 nM
Cc1ncc(Cn2c(C#N)cc3c(C)c(CN4CCC(Nc5ncnc6sc(CC(F)(F)F)cc56)CC4)ccc32)[nH]1 [Compound 351]	< 100 nM
N#Cc1ccc(CN2CCC(CNc3ncnc4sc(CC(F)(F)F)cc34)CC2)c(Cl)c1 [Compound 256]	100 to 500 nM
Cc1c(CN2CCC(Nc3ncnc4sc(CC(F)(F)F)cc34)CC2)ccc2c1cc(C#N)n2Cc1cn(C)nn1 [Compound 303]	< 100 nM
N#Cc1cc2cc(CN3CCC(Nc4ncnc5sc(CC(F)(F)F)cc45)CC3)ccc2n1CC(=O)NC1CC1 [Compound 291]	< 100 nM
Cc1c(CN2CCC(Nc3ncnc4sc(CC(F)(F)F)cc34)CC2)ccc2c1cc(C#N)n2CCN1CCN(C)C(=O)C1 [Compound 356]	< 100 nM
CC(=O)Nc1ccc(CN2CCC(Nc3ncnc4sc(CC(F)(F)F)cc34)CC2)cc1 [Compound 130]	100 to 500 nM
COCCOCC(O)(CO)Cn1c(C#N)cc2c(C)c(CN3CCC(Nc4ncnc5sc(CC(F)(F)F)cc45)CC3)ccc21 (centres unmarked) [Compound 315]	< 100 nM
N#Cc1cc2cc(CN3CC[C@H](Nc4ncnc5sc(CC(F)(F)F)cc45)[C@H](CO)C3)ccc2[nH]1 [Compound 163]	< 100 nM
CC(C)OC(CO)Cn1c(C#N)cc2cc(CN3CCC(Nc4ncnc5sc(CC(F)(F)F)cc45)CC3)ccc21 (centres unmarked) [Compound 292]	< 100 nM
Cc1c(CN2CCC(Nc3ncnc4sc(CC(F)(F)F)cc34)CC2)ccc2c1cc(C#N)n2CCN1CCN(C(=O)CCC2CCCCC2)CC1 [Compound 339]	< 100 nM
N#Cc1cc2cc(CN3CCC(Nc4ncnc5sc(CC(F)(F)F)cc45)C(N)C3)ccc2n1CC1CC1 (centres unmarked) [Compound 162]	< 100 nM
Nc1cccc(CN2CCC(Nc3ncnc4sc(CC(F)(F)F)cc34)CC2)c1 [Compound 157]	500 to 2000 nM
Cc1c(CN2CCC(Nc3ncnc4sc(CC(F)(F)F)cc34)CC2)ccc2c1cc(C#N)n2CCN1CCN(C(=O)CC2CCCCC2)CC1 [Compound 343]	< 100 nM
CN(C)S(=O)(=O)Nc1ccc(CC(=O)N2CCN(c3ncnc4sc(CC(F)(F)F)cc34)CC2)cc1 [Compound 51]	< 100 nM
FC(F)(F)Cc1cc2c(N3CCN(C4CCCCC4)CC3)ncnc2s1 [Compound 11]	100 to 500 nM
Cc1c(CN2CCC(Nc3ncnc4sc(CC(F)(F)F)cc34)CC2)ccc2c1cc(C#N)n2Cc1ncc[nH]1 [Compound 332]	< 100 nM
Cc1c(C#N)[nH]c2ccc(CN3CCC(Nc4ncnc5sc(CC(F)(F)F)cc45)CC3)cc12 [Compound 417]	100 to 500 nM
N#Cc1cc2cc(CN3CCC(Nc4ncnc5sc(CC(F)(F)F)cc45)CC3)ccc2n1Cc1nn[nH]n1 [Compound 240]	100 to 500 nM
NCc1ccccc1CN1CCC(Nc2ncnc3sc(CC(F)(F)F)cc23)CC1 [Compound 121]	100 to 500 nM

SMILES	IC50
N#C[C@H]1C[C@@H]1c1ccc(CN2CCC(Nc3ncnc4sc(CC(F)(F)F)cc34)CC2)cc1 [Compound 106]	< 100 nM
Cc1ccc(CN2CCC(CNc3ncnc4sc(CC(F)(F)F)cc34)CC2)cc1 [Compound 275]	500 to 2000 nM
CS(=O)(=O)N(CC(N)=O)c1ccc(CC(=O)N2CCN(C3=NC=NC4SC(CC(F)(F)F)=CC34)CC2)c(Cl)c1 (centres unmarked) [Compound 84]	100 to 500 nM
COc1cccc(CC(=O)N2CCN(c3ncnc4sc(CC(F)(F)F)cc34)CC2)c1 [Compound 95]	500 to 2000 nM
OCc1cccc2c(CN3CCC(Nc4ncnc5sc(CC(F)(F)F)cc45)CC3)c[nH]c12 [Compound 242]	100 to 500 nM
CCn1c(C#N)cc2cc(CN3CCC(Nc4ncnc5sc(CC(F)(F)F)cc45)CC3)ccc21 [Compound 177]	< 100 nM
FC(F)(F)Cc1cc2c(NCC3CCN(Cc4ccc(Cl)cc4)CC3)ncnc2s1 [Compound 261]	100 to 500 nM
CN1CCN(Cc2ccc(CN3CCC(Nc4ncnc5sc(CC(F)(F)F)cc45)CC3)cc2)CC1 [Compound 143]	500 to 2000 nM
N#Cc1ccc(CN2CCC(CNc3ncnc4sc(CC(F)(F)F)cc34)CC2)cc1 [Compound 263]	100 to 500 nM
N#Cc1cc2cc(CN3CCC(Nc4c(CO)cnc5sc(CC(F)(F)F)cc45)CC3)ccc2[nH]1 [Compound 278]	< 100 nM
CS(=O)(=O)N(CC(F)(F)F)c1ccc(CC(=O)N2CCN(c3ncnc4sc(CC(F)(F)F)cc34)CC2)cc1 [Compound 85]	100 to 500 nM
NS(=O)(=O)Cc1ccc(CC(=O)N2CCN(c3ncnc4sc(CC(F)(F)F)cc34)CC2)cc1 [Compound 44, (4-(2-oxo-2-(4-(6-(2,2,2-trifluoroethyl)thieno[2,3-d]pyrimidin-4-yl)piperazin-1-yl)ethyl)phenyl)methanesulfonamide]	< 100 nM
CC(O)(CO)Cn1c(C#N)cc2cc(CN3CCC(Nc4ncnc5sc(CC(F)(F)F)cc45)CC3)ccc21 (centres unmarked) [Compound 221]	< 100 nM
COc1c(CN2CCC(Nc3ncnc4sc(CC(F)(F)F)cc34)CC2)ccc2c1cc(C#N)n2CC(N)=O [Compound 193]	< 100 nM
CO[C@@H](CO)Cn1c(C#N)cc2cc(CN3CCC(Nc4ncnc5sc(CC(F)(F)F)cc45)CC3)ccc21 [Compound 190]	< 100 nM
CC1(C)CN=C(N2CCN(c3ncnc4sc(CCCC(F)(F)F)cc34)CC2)S1 [Compound 22]	500 to 2000 nM
Oc1ccc(CN2CCC(Nc3ncnc4sc(CC(F)(F)F)cc34)CC2)cc1 [Compound 105, 4-((4-((6-(2,2,2-trifluoroethyl)thieno[2,3-d]pyrimidin-4-yl)amino)piperidin-1-yl)methyl)phenol]	< 100 nM
NS(=O)(=O)Cc1ccc(CC(=O)N2CCN(c3ncnc4sc(CC(F)(F)F)cc34)CC2)c(F)c1 [Compound 78]	100 to 500 nM
O=C(Cc1ccc(F)cc1)N1CCN(c2ncnc3sc(CC(F)(F)F)cc23)CC1 [Compound 75]	100 to 500 nM
O=C(Cc1ccc2cc[nH]c2c1)N1CCN(c2ncnc3sc(CC(F)(F)F)cc23)CC1 [Compound 81]	100 to 500 nM
Cc1c(CN2CCC(Nc3ncnc4sc(CC(F)(F)F)cc34)CC2)ccc2c1cc(C#N)n2CC(O)CN1CCNCC1 (centres unmarked) [Compound 358]	< 100 nM
OCCCN(c1ncnc2sc(CC(F)(F)F)cc12)C1CCN(Cc2ccccc2)CC1 [Compound 127]	100 to 500 nM

SMILES	IC50
FC(F)(F)Cc1cc2c(NC3CCN(Cc4ccc[nH]4)CC3)ncnc2s1 [Compound 131]	100 to 500 nM
NS(=O)(=O)Cc1ccc(CC(=O)N2CCN(C3=NC=NC4SC(CC(F)(F)F)=CC34)CC2)c(Cl)c1 (centres unmarked) [Compound 286]	< 100 nM
OCc1c(CC(F)(F)F)sc2ncnc(NC3CCN(Cc4ccccc4)CC3)c12 [Compound 112]	100 to 500 nM
FC(F)(F)Cc1cc2c(NC3CCN(Cc4ccccc4Cl)CC3)ncnc2s1 [Compound 119]	100 to 500 nM
CC(=O)NCCS(=O)(=O)Nc1ccc(CC(=O)N2CCN(c3ncnc4sc(CC(F)(F)F)cc34)CC2)cc1 [Compound 57]	< 100 nM
COc1cc2c(cc(C#N)n2Cc2cn[nH]c2)c(C)c1CN1CCC(Nc2ncnc3sc(CC(F)(F)F)cc23)CC1 [Compound 389]	< 100 nM
NN(c1ncnc2sc(CC(F)(F)F)cc12)C1CCN(Cc2ccccc2)CC1 [Compound 123]	100 to 500 nM
N#Cc1cc2c(CO)c(CN3CCC(Nc4ncnc5sc(CC(F)(F)F)cc45)CC3)ccc2n1CC(N)=O [Compound 325]	< 100 nM
FC(F)(F)c1nnc(N2CCN(c3ncnc4sc(C5CC5)cc34)CC2)s1 [Compound 28]	500 to 2000 nM
NS(=O)(=O)c1ccc(CN2CCC(Nc3ncnc4sc(CC(F)(F)F)cc34)CC2)c(Cl)c1 [Compound 142]	500 to 2000 nM
CS(=O)(=O)N1CCC[C@H]1CN[C@@H]1CN(Cc2ccccc2)CC[C@H]1Nc1ncnc2sc(CC(F)(F)F)cc12 [Compound 173]	100 to 500 nM
CC1(C)CN=C(N2CCN(c3ncnc4sc(CCc5ccccc5)cc34)CC2)S1 [Compound 35]	500 to 2000 nM
FC(F)(F)Cc1cc2c(NCC3CCN(Cc4ccccc4C(F)(F)F)CC3)ncnc2s1 [Compound 274]	500 to 2000 nM
N#Cc1cc2c(Br)c(CN3CCC(Nc4ncnc5sc(CC(F)(F)F)cc45)CC3)ccc2n1CC(N)=O [Compound 307]	< 100 nM
N#Cc1cc2cc(CN3CCC(Nc4c(COCCCC5CCCC5)cnc5sc(CC(F)(F)F)cc45)CC3)ccc2[nH]1 [Compound 419]	500 to 2000 nM
N#Cc1cc2c(CO)c(CN3CCC(Nc4ncnc5sc(CC(F)(F)F)cc45)CC3)ccc2n1CCO [Compound 321]	< 100 nM
CC1(C)CN=C(C2C[C@@H]3C[C@H]2CN3c2ncnc3sc(CC(F)(F)F)cc23)S1 (mixture of isomers) [Compound 14]	100 to 500 nM
OCCN(c1ncnc2sc(CC(F)(F)F)cc12)C1CCN(Cc2ccccc2)CC1 [Compound 129]	100 to 500 nM
N#Cc1cc2c(CO)c(CN3CCC(Nc4ncnc5sc(CC(F)(F)F)cc45)CC3)ccc2[nH]1 [Compound 290]	< 100 nM
Cc1c(CC(F)(F)F)sc2ncnc(N3CCN(c4nnc(C(F)(F)F)s4)CC3)c12 [Compound 7]	100 to 500 nM
CNS(=O)(=O)Nc1ccc(CC(=O)N2CCN(c3ncnc4sc(CC(F)(F)F)cc34)CC2)cc1 [Compound 48]	< 100 nM
